Source: patent US20210252104A1, “ANTIBACTERIAL PEPTIDE MONOMERS AND COMBINATIONS FOR CO-THERAPY” (ARREVUS, INC., priority 2018, published 2021)
Converted amounts (≈) assume the structure as drawn. Where two headings read alike, the source gives them in different places. Non-standard residues stand in square brackets, D forms with d. Residues, ends and D or L forms follow the SMILES beside them. Ac6c = NC1(C(=O)O)CCCCC1

What was measured:
A. baumannii HUMC1 = assay: Bacteremia synergy assay 3 (murine bacteremia model); type: in vivo
[1] = Post-antibiotic effect (PAE)
Text: Post-antibiotic Effect (PAE).

[2] = reported value; cited from earlier work
[3] = molecular target: 70 kDa bacterial heat shock protein DnaK (Escherichia coli, UniProt P0A6Y8); assay: Binding to DnaK
Text: The bacterial target of peptide monomers described herein, such as Chex1-Arg20, is believed to be the C-terminal D-E helix of the 70 kDa bacterial heat shock protein DnaK (Otvos et al., J. Med. Chem. 48:5349 (2005); Kragol et al., Biochemistry 40:3016 (2001); Bikker et al., Chem. Biol. Drug Des. 68:148 (2006)). DnaK is a 650-residue protein comprised of 3 distinct domains: (1) N-terminal nucleotide binding domain, (2) C-terminal substrate binding domain and (3) flexible linking domain. […] Peptide monomers described herein bind to DnaK from multiple bacterial species. The MPC of Chex1-Arg20 is reported to be >100 μM, supporting the conclusion that the antibacterial efficacy is […] non-membranolytic. Because DnaK is present in all bacteria, peptide monomers described herein are effective against a wide variety of bacteria and may be effective in combination with all classes of antibiotics.

E. coli 5770 = assay: Mice challenged ip with E. coli 5770, blood bacterial counts
[4] = Immunogenicity, antibody production by ELISA; type: in vivo; settings: mice; 5 mg/kg sc twice in a 3-wk interval; blood 4 weeks after second immunization
[5] = test system: Burkholderia pseudomallei 1026b; type: in vivo
K. pneumoniae K97/09 [6] = settings: K. pneumoniae K97/09; no unit in table (mg/L)
[7] = test system: A. baumannii strain (BAA-1605); assay: microbe, parasite or virus in culture; type: cell-based; settings: Acinetobacter baumannii, BAA1605, read-out: MIC
[8] = test system: Acinetobacter baumannii BAA-1805 (MACI); assay: microbe, parasite or virus in culture; settings: BAA1805, read-out: MACI MIC (mg/L)
K. pneumoniae K97/09 [9] = assay: FIC checkerboard assay (combinations); type: cell-based; settings: K. pneumoniae K97/09
K. pneumoniae K97/09 [10] = assay: microbe, parasite or virus in culture; settings: Klebsiella pneumoniae

Chain of 70 kDa bacterial heat shock protein DnaK (P0A6Y8 whole entry, the tested form may be a part): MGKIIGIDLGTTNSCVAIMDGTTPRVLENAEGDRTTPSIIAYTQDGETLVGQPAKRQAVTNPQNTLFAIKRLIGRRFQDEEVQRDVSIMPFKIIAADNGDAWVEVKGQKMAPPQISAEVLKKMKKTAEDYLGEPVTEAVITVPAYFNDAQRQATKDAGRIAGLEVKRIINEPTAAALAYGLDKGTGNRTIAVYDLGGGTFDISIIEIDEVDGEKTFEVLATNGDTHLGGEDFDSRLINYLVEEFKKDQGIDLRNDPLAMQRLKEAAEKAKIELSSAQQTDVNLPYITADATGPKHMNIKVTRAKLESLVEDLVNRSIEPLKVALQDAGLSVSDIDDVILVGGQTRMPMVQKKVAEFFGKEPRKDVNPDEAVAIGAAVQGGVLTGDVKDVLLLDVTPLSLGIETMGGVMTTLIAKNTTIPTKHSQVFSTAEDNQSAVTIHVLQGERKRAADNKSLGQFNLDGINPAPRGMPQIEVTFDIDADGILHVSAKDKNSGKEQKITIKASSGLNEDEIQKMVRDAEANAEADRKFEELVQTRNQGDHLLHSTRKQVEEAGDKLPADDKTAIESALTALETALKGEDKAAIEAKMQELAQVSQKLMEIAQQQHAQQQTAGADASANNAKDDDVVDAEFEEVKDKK

For `CC(C)C[C@H](NC(=O)[C@H](Cc1ccc(O)cc1)NC(=O)[C@@H]1CCCN1C(=O)[C@H](CCCNC(=N)N)NC(=O)[C@@H]1CCCN1C(=O)[C@H](CCCCN)NC(=O)[C@H](CC(=O)O)NC(=O)[C@@H]1CCCN1C(=O)[C@H](CCCNC(=N)N)NC(=O)C1(N)CCCCC1)C(=O)N1CCC[C@H]1C(=O)N[C@@H](CCCNC(=N)N)C(=O)N1CCC[C@H]1C(=O)N[C@@H](CCCNC(=N)N)C(=O)N1CCC[C@H]1C(=O)N1CCC[C@H]1C(=O)N[C@@H](CCCNC(=N)N)C(=O)N1CCC[C@H]1C(=O)N[C@H](C(=O)N[C@@H](CCCNC(=N)N)C(N)=O)C(C)C` [Example 1, Chex-RPDKPRPYLPRPRPPRPVR-NH2] (H-[Ac6c]RPDKPRPYLPRPRPPRPVR-NH2), the MIC (P. aeruginosa ATCC 47085) was 56.3 ± 4.5 µM (≈ 139 µg/mL), the MIC (K. Pneumoniae ATCC 13883) was 0.8 ± 0.0 µM (≈ 1.98 µg/mL) and the “Complete response (negative blood culture), test animals” value (A. baumannii HUMC1; ARV-1502 5.0 mg/kg treatment group) was 100%. For the same compound, the “Negative blood culture of A. baumannii” value (A. baumannii HUMC1; ARV-1502 1.25-5.0 mg/kg treatment groups) was “dose-dependent negative blood culture”, the MIC (E. coli UNT167-1) was 32 µg/mL (≈ 12.9 µM) and the “Post-antibiotic effect (PAE)” value [1] was 14 h. For the same compound, the MPC [2] was over 100 µM, the MIC (A. Baumannii ATCC 19606) was over 100 µM and the Kd [3] was 410 nM. The MIC (E. Coli ATCC 29222) was 2.6 ± 0.7 µM (≈ 6.44 µg/mL), the “Bacterial counts in blood” value (E. coli 5770; 2.5 mg/kg ip, 4 h after challenge (before first dose)) was 3.68 × 10^7 CFU/mL and the “Bacterial counts in blood” value (E. coli 5770; 2.5 mg/kg ip, 8 h after challenge) was 4.2 × 10^6 CFU/mL. The “Bacterial counts in blood” value (E. coli 5770; 2.5 mg/kg ip, 12 h after challenge) was <1.7 × 10^6 CFU/mL, the “Bacterial counts in blood” value (E. coli 5770; 2.5 mg/kg ip, 16 h after challenge) was <1 × 10^6 CFU/mL and the “Bacterial counts in blood” value (E. coli 5770; 2.5 mg/kg ip, 24 h after challenge) was <4.8 × 10^5 CFU/mL. For the same compound, the “Improvement of blood bacterial load” value (E. coli 5770; 2.5 mg/kg ip, by 24 h) was “not statistically significant”, the “Reduction of blood bacterial load” value (E. coli 5770; 2.5 mg/kg ip, during the 12-h treatment period) was 1.5-2 log 10 units and the “Reduction of blood bacterial counts after inoculation” value (E. coli 5770; 5 mg/kg ip) was over 2 log 10 CFU/mL. For the same compound, the “Bacterial counts in blood” value (E. coli 5770; 5 mg/kg ip, 4 h after challenge (before first dose)) was 3.68 × 10^7 CFU/mL, the “Bacterial counts in blood” value (E. coli 5770; 5 mg/kg ip, 8 h after challenge) was 4.3 × 10^5 CFU/mL and the “Bacterial counts in blood” value (E. coli 5770; 5 mg/kg ip, 12 h after challenge) was 1.1 × 10^6 CFU/mL. The “Bacterial counts in blood” value (E. coli 5770; 5 mg/kg ip, 16 h after challenge) was <1.1 × 10^5 CFU/mL, the “Bacterial counts in blood” value (E. coli 5770; 5 mg/kg ip, 24 h after challenge) was <1 × 10^3 CFU/mL and the Blood sterilization (E. coli 5770; 5 mg/kg ip, at 24 h) was “complete sterilization of the blood”. The “Time after the last peptide treatment by which the blood was sterilized” value (E. coli 5770; 10 mg/kg ip) was at most 4 h, the “Bacterial counts in blood” value (E. coli 5770; 10 mg/kg ip, 4 h after challenge (before first dose)) was 3.68 × 10^7 CFU/mL and the “Bacterial counts in blood” value (E. coli 5770; 10 mg/kg ip, 8 h after challenge) was 2.4 × 10^5 CFU/mL. For the same compound, the “Bacterial counts in blood” value (E. coli 5770; 10 mg/kg ip, 12 h after challenge) was 2.9 × 10^5 CFU/mL, the “Bacterial counts in blood” value (E. coli 5770; 10 mg/kg ip, 16 h after challenge) was <1 × 10^3 CFU/mL and the “Bacterial counts in blood” value (E. coli 5770; 10 mg/kg ip, 24 h after challenge) was <1 × 10^3 CFU/mL. For the same compound, the “Antibody production by ELISA” value [4] was “Neither IgG1, IgG2a, IgG3, IgM, nor IgE are observed”, the “Median survival (days post-challenge)” value ([5]; Chex1-Arg20 5 mg/kg im monotherapy) was 4 days post-challenge and the Rescue of mice ([5]; Chex1-Arg20 monotherapy) was “failed to rescue any mouse”. The “B. pseudomallei load in survivals (CFU/spleen)” value ([5]; in vivo, 5 mg/kg) was “No survival” and the Number of deaths ([5]; in vivo, 5 mg/kg) was 10.
With `C[C@@H](O)[C@H]1C(=O)N2C(C(=O)O)=C(SCCN=CN)C[C@H]12` [imipenem] the “MIC of antibiotic alone” value (K. pneumoniae K97/09 [6]) was over 256, the MIC [7] was 64 µg/mL (≈ 214 µM) and the MIC [8] was 64 mg/L (≈ 214 µM). For the same compound, the ΣFIC (K. pneumoniae K97/09 [9]; antibiotic + ARV-1501) was 0.5, the “MIC of antibiotic + ARV-1501” value (K. pneumoniae K97/09 [9]; antibiotic in combination with ARV-1501, no unit in table) was 4 and the MIC (K. pneumoniae K97/09 [10]; K97/09) was over 256 mg/L. For the same compound, the MIC (K. pneumoniae K97/09 [10]; K97/09, read-out: KPC MIC (mg/L)) was over 256 mg/L.
